For series [1], the system named is MV-4-11 cells. Kind of series: Anti-proliferation CellTiter-Glo assay, MV-4-11. In kind it is cell-based. As to conditions: Homo sapiens, MV4-11, 12th day. From the text: (§1) MV-4-11 and MDA-MB-468 cell lines were used to evaluate the anti-proliferative activities of the selected target compounds (CellTiter-Glo assay), and AML-12 hepatocytes were selected to evaluate the toxicity of the compounds.
(§2) MV-4-11 and MDA-MB-468 cell line were derived from Cell Resources Center of Shanghai Academy of life sciences (Shanghai, China). AML-12 cell line was brough from Nanjing Lixing Biotechnology Co. Ltd. (Nanjing, China). MDA-MB-468 cell line was maintained in Dulbecco’s Modified Eagle Medium (DMEM, KeyGEN Bio) that contained 10% FBS (Biochanel, China), MV-4-11 cell line was maintained in Iscove’s Modified Dulbecco Medium containing; 10% FBS (Biochannel, China), AML-12 cell line was maintained in DMEM/F-12 (1:1) (KeyGEN, China; 1% ITS Liquid Media Supplement (Sigma, America), dexamethasone 40 ng/mL (Sigma, USA) and 10% FBS (Biochannel, China). All cells were grown in a humidified incubator containing 5% carbon dioxide at 37 ℃. All compounds were dispersed in dimethyl sulfoxide (Sigma), the concentration of the reserve solution was 10 mmol/L and the solution was stored in a refrigerator at −20 ℃. SDMA (# 13222S), β- Tubulin (#2146S) and horseradish peroxidase (HRP)-linked secondary antibodies anti-rabbit or anti-mouse IgG were purchased from Cell Signaling Technology (CST), and the anti-PRMT5 (ab109451) antibody was purchased from ABCAM.
(§3) The antiproliferative activities of compounds in vitro were measured by CellTiter-Glo (CTG) assay (Promega, America). In linear/log-phase growth, cultured MV-4-11 cells were split to with seeding density of 2 × 10^5 cells/mL in 1–20 mL of media, depending on the yield required at the end of the growth period. At the conclusion of each treatment period, cells were harvested by centrifugation (4 min, 1000 rpm), and cell pellets were rinsed twice with PBS before being research further processing. Afterwards, cells were plated in 96-well plates with a density of 500 cells/well in […] media. After six hours incubation, compounds treatment was performed. Half of the culture medium was moved and re-plated with fresh media with fresh compound after 6 days. On the 12th day, Cell Titer-Glo Luminescent Cell Viability assays (Promega, USA) were used to determine the viable cell number, and luminescence was recorded using the Envision Multilabel Plate Readers (PerkinElmer). The concentration dependence curves were determined at each time point using GraphPad Prism 8.0 software.
On the technique in general: ATP-based viability assays read luminescence as a measure of living cells.

Series [2] has as its system AML-12 hepatocytes. In words: Toxicity on normal AML-12 hepatocytes. The class given is cell-based. To be noted: Mus musculus, AML12; for inhibition at 10 µM: read-out: AML-12 Inhibition Rate% @10 μM; for inhibition at 20 µM: read-out: AML-12 Inhibition Rate% @20 μM.
Excerpt: as §1
as §2, with “ABCAM. […]” for “ABCAM.”

For series [3], the target named is T1, PRMT5 (Homo sapiens, UniProt O14744).
T1 construct: The final concentrations of PRMT5 enzyme: 2.5 nm/L
T1 sequence (O14744 whole entry): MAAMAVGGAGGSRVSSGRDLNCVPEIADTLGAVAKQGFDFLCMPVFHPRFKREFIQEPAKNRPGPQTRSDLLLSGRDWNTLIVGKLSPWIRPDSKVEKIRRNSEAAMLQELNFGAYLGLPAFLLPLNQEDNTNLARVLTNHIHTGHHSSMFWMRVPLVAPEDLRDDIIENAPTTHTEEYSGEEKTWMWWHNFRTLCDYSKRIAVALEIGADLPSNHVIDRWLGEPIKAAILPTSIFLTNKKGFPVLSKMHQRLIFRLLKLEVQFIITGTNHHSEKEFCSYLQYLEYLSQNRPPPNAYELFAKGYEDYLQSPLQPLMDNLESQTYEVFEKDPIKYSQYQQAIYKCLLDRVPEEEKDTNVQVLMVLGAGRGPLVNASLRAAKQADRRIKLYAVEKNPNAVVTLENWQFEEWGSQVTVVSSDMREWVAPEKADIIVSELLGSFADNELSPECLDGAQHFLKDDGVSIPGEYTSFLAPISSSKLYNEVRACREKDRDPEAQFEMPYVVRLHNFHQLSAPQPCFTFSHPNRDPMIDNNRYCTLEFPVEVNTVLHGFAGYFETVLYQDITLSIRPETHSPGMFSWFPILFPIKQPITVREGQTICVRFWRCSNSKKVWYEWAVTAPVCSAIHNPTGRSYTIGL
T1 sequence (Q9BQA1 whole entry partner): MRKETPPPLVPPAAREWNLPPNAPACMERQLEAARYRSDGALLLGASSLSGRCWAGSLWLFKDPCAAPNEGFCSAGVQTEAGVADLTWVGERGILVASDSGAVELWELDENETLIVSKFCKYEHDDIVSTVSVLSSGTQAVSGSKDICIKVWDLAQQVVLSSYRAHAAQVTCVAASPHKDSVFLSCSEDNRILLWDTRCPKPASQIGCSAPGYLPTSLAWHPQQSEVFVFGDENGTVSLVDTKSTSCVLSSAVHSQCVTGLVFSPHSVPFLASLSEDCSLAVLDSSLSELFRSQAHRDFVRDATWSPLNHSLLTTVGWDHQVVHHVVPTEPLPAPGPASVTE
Kind of series: PRMT5 enzymatic activity inhibition assay (radioactive methylation, 3H-SAM to H4R3 peptide). In kind it is biochemical. To be noted: for inhibition at 0.1 µM: 100 nM compound, read-out: Inhibition Rate% @100 nM. The method, then: The PRMT5 enzymatic activity assay was conducted by Chempartner Life science. The final concentrations of PRMT5 enzyme: 2.5 nm/L; ^3H-SAM: 0.3 μM/L; histone peptide (H4R3S1ac): 0.3 μM/L. The protocol of radioactive methylation assay was as follows: (1) Prepare 1× assay buffer (modified Tris Buffer). (2) Transfer compounds to assay plate using Echo in 100% DMSO. DMSO’s final fraction is 1%. (3) Prepare enzyme and ^3H-SAM Mix solution in 1× assay buffer. (4) Prepare substrate (peptide sequence Ac-[…]-K(Biotin)) solution in 1× assay buffer. (5) Transfer 15 μL of enzyme and ^3H-SAM solution to assay plate. (6) Incubate at room temperature for 60 min. (7) Add 10 μL of substrate solution to each well to start the reaction, and for low control transfer 10 μL of 1× assay buffer. (8) Incubate at room temperature for 120 min. (9) Add cold SAM in 1× assay buffer to make the stop mix. (10) Stop reaction with addition of 5 µL per well of stop solution. (11) Transfer 25 µL of volume per well to Flash plate from assay plate. (12) Incubate for 1 h minimum at room temperature.
(13) Read plate on Micro beta. (14) Data process—get the data in Excel to obtain inhibition values using Equation (1).Inhibitory rate% = (Max-Signal)/ (Max-Min) × 100(1)
Fit the data in XL-Fit to obtain IC50 values using Equation (2): Y = Bottom + (Top-Bottom)/(1 + (IC50/X) […]) Y is% inhibition and X is compound concentration(2)

Series [4] has as its system MDA-MB-468 cells. Kind of series: Anti-proliferation CellTiter-Glo assay, MDA-MB-468. In kind it is cell-based. As to conditions: Homo sapiens.
Excerpt: as §1, §2, §3

Series [5] relates to MV-4-11 xenograft. Kind of series: MV-4-11 xenograft mouse model. In kind it is in vivo, BALB/c nude mice. To be noted: 10 mg/kg, twice daily (BID), 28 days. The method, then:
Based on the excellent enzymatic and anti-proliferative activities of compound 20 in vitro, we then evaluated antitumor activities in vivo in an MV-4-11 xenograft mouse model.
Male BALB/c nude mice (6–8 weeks old) were purchased from Hangzhou Medical College. All animals were housed in a specific pathogen-free facility. MV-4-11 cells (5 × 10^6) suspended in 0.2 mL of PBS were inoculated subcutaneously on the right flank of each BALB/c nude mouse. Mice were divided randomly (5 mice for each group) into two treatment groups and a control group when the size of the tumors reached 150 mm^3. […] The tumor volume and body weight were measured every 2 days. The tumor volume was determined with Vernier calipers and calculated as follows: tumor volume = a × b^2/2, where a and b stand for the longest and shortest diameters measured by the vernier caliper, respectively. All animal experiments have been approved by Pharmaceutical Experiment Center of China Pharmaceutical University.
(A) The resulting tumors excised from the animals after treatment. […] (C) The nude mouse body weight was measured every 2 days. (D) The tumor volumes of the nude mice were measured and calculated once every 2 days.

For series [6] the following is noted: no reference given; cited from earlier work.

Results on 8 compounds are retold here after PMC9572541, “Design, Synthesis and Biological Evaluation of Novel and Potent Protein Arginine Methyltransferases 5 Inhibitors for Cancer Therapy” (Molecules, 2022).

Regarding `Cn1c2c(c3cc(C(=O)NC[C@H](O)CN4CCc5ccccc5C4)ccc31)CCCC2` [Compound 13, (S)-N-(3-(3,4-dihydroisoquinolin-2(1H)-yl)-2-hydroxypropyl)-9-methyl-2,3,4,9-tetrahydro-1H-carbazole-6-carboxamide], halving of growth in series [1] (GI50) required 163.1 ± 0.3 nM. For the same compound, in series [2], the inhibition (in general, the drop in the measured response relative to a control, in per cent) at 10 µM turned out to be 16.3 ± 3.4% and the inhibition at 20 µM was found to be 21.2 ± 2%. In addition, in series [3], the half-maximal inhibitory concentration (IC50) – broadly, the midpoint of a concentration-inhibition curve – stood at 10 ± 4.4 nM and the inhibition at 0.1 µM was determined as 75 ± 0.7%. In addition, growth in series [4] was halved (GI50) at 147 ± 2.5 nM.

For `O=C(NC[C@H](O)CN1CCc2ccccc2C1)c1ccc2[nH]c3ccccc3c2c1` [Compound 1, (S)-N-(3-(3,4-dihydroisoquinolin-2(1H)-yl)-2-hydroxypropyl)-9H-carbazole-3-carboxamide], the GI50 (commonly the concentration giving 50% growth inhibition) in series [1] turned out to be 271 ± 152 nM. Besides, in series [2], the inhibition at 10 µM stood at 16.7 ± 10.4% and the inhibition at 20 µM worked out at 97.5 ± 0.1%. Further, in series [3], the IC50 was found to be 13 ± 8.9 nM and the inhibition at 0.1 µM was 73 ± 0.7%. In addition, in series [4], halving of growth (GI50) required 552 ± 33 nM.

In series [1], `O=C(NC[C@H](O)CN1CCc2ccccc2C1)c1ccc2[nH]c3c(c2c1)CCCC3` [Compound 7, (S)-N-(3-(3,4-dihydroisoquinolin-2(1H)-yl)-2-hydroxypropyl)-2,3,4,9-tetrahydro-1H-carbazole-6-carboxamide] returned a GI50 of 54.1 ± 20.5 nM. Moreover, in series [2], the inhibition at 10 µM came to 46.4 ± 3.7% and the inhibition at 20 µM was found to be 98.4 ± 0.7%. In addition, in series [3], the concentration for half-maximal inhibition (IC50) worked out at 18.6 ± 0.9 nM and the inhibition at 0.1 µM was 75 ± 0.7%. This compound showed a GI50 in series [4] of over 250 nM.

For `O=C(NC[C@H](O)CN1CCc2ccccc2C1)c1ccc2[nH]c3c(c2c1)CCCCCC3` [Compound 10, (S)-N-(3-(3,4-dihydroisoquinolin-2(1H)-yl)-2-hydroxypropyl)-6,7,8,9,10,11-hexahydro-5H-cycloocta[b]indole-2-carboxamide], the GI50 came to 42.4 ± 2.6 nM in series [1] and 126 ± 70.9 nM in series [4]. For the same compound, the inhibition at 10 µM in series [2] is 97.9 ± 1.2%. Further, in series [2], the inhibition at 20 µM amounted to 100.7 ± 0.1%. Besides, in series [3], the inhibition at 0.1 µM amounted to 71 ± 1.3%.

In turn, `CCCn1c2c(c3cc(C(=O)NC[C@H](O)CN4CCc5ccccc5C4)ccc31)CCCC2` [Compound 15] gave a GI50 in series [1] of 39.5 ± 1.9 nM. Moreover, in series [2], the inhibition at 10 µM was -21.5 ± 2% and the inhibition at 20 µM was found to be 77.3 ± 1.6%. Moreover, in series [3], the IC50 is 4.2 ± 2.1 nM and the inhibition at 0.1 µM came out at 79 ± 4%. In series [4], this compound gave a concentration for 50% growth inhibition (GI50) of 24.9 ± 20.2 nM.

In the case of `CC(=O)N1CCC(Nc2cc(C(=O)NC[C@H](O)CN3CCc4ccccc4C3)ncn2)CC1` [GSK-3326595, reference compound], the 50% growth inhibitory concentration (GI50) is 9.3 ± 2.8 nM in series [1] and 37.3 ± 3 nM in series [4]. Further, in series [2], the inhibition at 10 µM turned out to be 22.9 ± 3%. In series [2], the inhibition at 20 µM was determined as 26.5 ± 2%. For the same compound, in series [5], the TGI (in general, the reduction of tumour growth relative to the control group) was found to be 39.3%. The “adverse events in clinical studies” value in series [6] is listed as “grade 3 or 4 adverse events”.

In series [1], `O=C(NC[C@H](O)CN1CCc2ccccc2C1)c1ccc2c(c1)c1c(n2CC2CCC2)CCCC1` [Compound 19, (S)-9-(cyclobutylmethyl)-N-(3-(3,4-dihydroisoquinolin-2(1H)-yl)-2-hydroxypropyl)-2,3,4,9-tetrahydro-1H-carbazole-6-carboxamide] displayed a GI50 of 16 ± 2.3 nM. Further, in series [2], the inhibition at 10 µM stood at 32.9 ± 5.4% and the inhibition at 20 µM amounted to 100.2 ± 0.9%. In addition, in series [3], the IC50 worked out at 7.5 ± 0.3 nM and the inhibition at 0.1 µM was found to be 80 ± 1%. Moreover, halving of growth in series [4] (GI50) required 99.1 ± 8.3 nM.

For the compound `CCn1c2c(c3cc(C(=O)NC[C@H](O)CN4CCc5ccccc5C4)ccc31)CCCC2` [Compound 14, (S)-N-(3-(3,4-dihydroisoquinolin-2(1H)-yl)-2-hydroxypropyl)-9-ethyl-2,3,4,9-tetrahydro-1H-carbazole-6-carboxamide], the GI50 in series [1] is 29.7 ± 12.8 nM. Moreover, in series [2], the inhibition at 10 µM is -67 ± 11.3% and the inhibition at 20 µM came out at 17.7 ± 3.5%. In addition, in series [3], the 50% inhibitory concentration (IC50) turned out to be 8.8 ± 0.4 nM and the inhibition at 0.1 µM is 81 ± 3.2%. In addition, in series [4], the GI50 was 286 ± 5.9 nM.
